Experimental data from US11793845B2, “Composition for ameliorating peripheral sensory neuropathy” (KINKI UNIVERSITY, priority 2016, dated 2023).

Legend:
Assay type in all cases: in vivo
[1] = test system: Peripheral Sensory Neuropathy Induced by Vincristine in Mice; experiment: cold plate test, vincristine-induced peripheral sensory neuropathy; conditions: duloxetine 30 mg/kg daily
Description: The effect of the Lentinus edodes mycelium extract on the paresthesia to cold stimulation was tested by performing the cold plate test. The mice in the three groups in the above (1) were put on a cold plate set to 10° C. and a response time for avoidance (a latency) was measured. The shorter latency means that the mouse avoids the cold stimulation of the cold plate more.
In the present test, the mice were divided into three groups by a difference in test objects. As in Example 1, male Balb/c mice of 6 to 7 weeks old were used. The mice were divided into a total of three groups, a control group, a vincristine
administration group, and a vincristine and Lentinus edodes mycelium extract administration group (vincristine+Lentinus edodes mycelium extract administration group).
Vincristine was administered to each mouse once a day at a dose of 0.2 mg/kg. Further, the Lentinus edodes mycelium extract was administered to each mouse once a day at a dose of 2 g/kg.
Evaluation was performed in the same manner as in the test with oxaliplatin in Example 1. Referring to FIG. 6, the horizontal axis indicates the elapsed time after administration (days) and the vertical axis indicates the avoidance response time (seconds). Open circles with a solid line represent the control group. Filled circles with a solid line represent the group in which only vincristine was administered. Open squares with a dash line represent the group in which vincristine and the Lentinus edodes mycelium extract were administered at the same time (vincristine+Lentinus edodes mycelium extract administration group). When the difference with the control group was determined to be significant using a significance level of 5%, the data were marked by “*”.
(§1) In the present test, the mice were divided into six groups by a difference in test objects. As in Example 1, male Balb/c mice of 6 to 7 weeks old were used. […]

[2] = test system: Peripheral Sensory Neuropathy Induced by Paclitaxel in Mice; experiment: von Frey test, paclitaxel-induced peripheral sensory neuropathy; conditions: duloxetine 30 mg/kg daily
Description: The mice in the three groups in the above (1) were put in a cage and a filament having a strength of 0.16 g was pressed on the plantar surface of the leg to measure the number of times (a score) of avoidance response.
Male Balb/c mice of 6 to 7 weeks old were used as in Example 1. The mice were divided into three groups: a control group, a paclitaxel administration group, and a paclitaxel and Lentinus edodes mycelium extract administration group (paclitaxel+Lentinus edodes mycelium extract administration group). Paclitaxel was administered to each mouse once a day at a dose of 6 mg/kg. Further, the Lentinus edodes mycelium extract was administered to each mouse once a day at a dose of 2 g/kg.
Further, the number of times of administration was set to once a week (on Day 0, Day 7, and Day 14) for paclitaxel and daily (from Day 0 to Day 15) for the Lentinus edodes mycelium extract in both the von Frey test and the cold plate test below.
Evaluation was performed in the same manner as in the test with oxaliplatin. Referring to FIG. 3, the horizontal axis indicates an elapsed time after administration (days) and the vertical axis indicates the avoidance response (scores). Open circles with a solid line represent the control group. Filled circles with a solid line represent the group in which only paclitaxel was administered. Open squares with a dash line represent the group in which paclitaxel and the Lentinus edodes mycelium extract were administered (paclitaxel+Lentinus edodes mycelium extract administration group). When the difference with the control group was determined to be significant using a significance level of 5%, the data were marked by “*”.
as §1

[3] = test system: Peripheral Sensory Neuropathy Induced by Oxaliplatin in Mice; experiment: von Frey test, oxaliplatin-induced peripheral sensory neuropathy
Description: Male Balb/c mice of 6 to 7 weeks old were used. The mice were divided into three groups: a control group, an oxaliplatin administration group, and an oxaliplatin and Lentinus edodes mycelium extract administration group (oxaliplatin+Lentinus edodes mycelium extract administration group). Oxaliplatin was administered to each mouse once a day at a dose of 6 mg/kg. Further, the Lentinus edodes mycelium extract was administered to each mouse once a day at a dose of 2 g/kg.
Further, the number of times of administration was set to once a week (on Day 0, Day 7, and Day 14) for oxaliplatin and daily (from Day 0 to Day 15) for the Lentinus edodes mycelium extract in both the von Frey test and the cold plate test below.
The higher number of times of avoidance means that the mouse avoids the stimulation by the filament more. […] When the difference with the control group was determined to be significant using a significance level of 5%, the data were marked by “*”.

CNCC[C@H](Oc1cccc2ccccc12)c1cccs1 [duloxetine]
latency compared with vincristine administration group, cold plate test ([1]; 3-day delayed after vincristine): almost the same as that in the vincristine administration group
latency, cold plate test ([1]; 6-day delayed after vincristine): same tendency as that in the duloxetine 3-day delayed administration group
avoidance score compared with paclitaxel administration group, von Frey test ([2]; 3-day delayed after paclitaxel): almost the same avoidance score as that in the paclitaxel administration group
avoidance score, von Frey test ([2]; 6-day delayed after paclitaxel): same tendency as that in the duloxetine 3-day delayed administration group
avoidance score compared with oxaliplatin administration group, von Frey test ([3]; duloxetine 30 mg/kg daily Day 3 to Day 23 (3-day delayed) after oxaliplatin 6 mg/kg weekly): almost the same score as that in the oxaliplatin administration group
avoidance score, von Frey test ([3]; duloxetine 30 mg/kg daily Day 6 to Day 23 (6-day delayed) after oxaliplatin 6 mg/kg weekly): same tendency as that in the duloxetine 3-day delayed administration group
